US4552879A, “Benzoheterocyclic compounds and pharmaceutical composition thereof” (Otsuka Pharmaceutical Co., Ltd., priority 1980, dated 1985)
In brackets after ≈: the same amount, converted by molar mass. Where two headings read alike, the source gives them in different places.

What was measured:
Assay in all cases: Minimum inhibitory concentration, serial dilution method on agar plate
Type in all cases: cell-based
Shigella sonnei EW 33 = test system: Shigella sonnei EW 33
Experimental: The antimicrobial activity of the following test compounds on various test organisms listed below was determined by the serial dilution method on agar plate (Heart Infusion agar produced by Difco Co.) (see CHEMOTHERAPY 22, pp. 1126-1128 (1974)), and the minimum inhibitory concentrations (mcg/ml) obtained are shown in Tables 1, 2 and 3 below.
A sample of each test organism was prepared so that the population of the organism was 1×10^8 cells/ml (O.D. 660 mμ=0.07 to 0.16) and 1×10^6 cells/ml (which was obtained by diluting 100 fold the above 1×10^8 cells/ml preparation).

[1] = test system: Pseudomonas aeruginosa ATCC 10145; settings: for MIC: Pseudomonas aeruginosa
[2] = test system: Salmonella typhi 0-901 (NCTC 8393); settings: Salmonella enterica
[3] = test system: Staphylococcus aureus FDA 209 P; settings: for MIC: Staphylococcus aureus
[4] = test system: Serratia marcescens IFO 12648
Proteus rettgeri NIH 96 = settings: Providencia rettgeri
[5] = test system: Streptococcus pyogenes IID S-23; settings: for MIC: Streptococcus pyogenes
Klebsiella pneumoniae = test system: Klebsiella pneumoniae
[6] = test system: Escherichia Coli NIHJ JC-2 (IFO 12734)
Pseudomonas putida 12996 = test system: Pseudomonas putida 12996
[7] = test system: Pseudomonas aeruginosa E-2; settings: for MIC: Pseudomonas aeruginosa
[8] = test system: Pseudomonas aeruginosa NCTC 10490; settings: for Minimum Inhibitory Concentration: 1×10^6 cells/ml; for MIC: Pseudomonas aeruginosa, NCTC10490, 1×10^8 cells/ml
[9] = ATCC10145, 1×10^6 cells/ml, read-out: Minimum Inhibitory Concentration
[10] = ATCC10145, 1×10^8 cells/ml, read-out: Minimum Inhibitory Concentration
[11] = read-out: Minimum Inhibitory Concentration, 1×10^6 cells/ml
[12] = read-out: Minimum Inhibitory Concentration, 1×10^8 cells/ml
[13] = FDA209, 1×10^6 cells/ml, read-out: Minimum Inhibitory Concentration
[14] = FDA209, 1×10^8 cells/ml, read-out: Minimum Inhibitory Concentration
[15] = IFO12648, 1×10^6 cells/ml, read-out: Minimum Inhibitory Concentration
[16] = IFO12648, 1×10^8 cells/ml, read-out: Minimum Inhibitory Concentration
[17] = NIH96, 1×10^8 cells/ml, read-out: Minimum Inhibitory Concentration
[18] = NIH96, read-out: Minimum Inhibitory Concentration, 1×10^6 cells/ml
[19] = IIDS23, 1×10^6 cells/ml, read-out: Minimum Inhibitory Concentration
[20] = IIDS23, 1×10^8 cells/ml, read-out: Minimum Inhibitory Concentration
[21] = E2, 1×10^6 cells/ml, read-out: Minimum Inhibitory Concentration
[22] = E2, 1×10^8 cells/ml, read-out: Minimum Inhibitory Concentration
[23] = NIH96, 1×10^6 cells/ml, read-out: Minimum Inhibitory Concentration
[24] = 1×10^6 cells/ml, read-out: Minimum Inhibitory Concentration
[25] = 1×10^8 cells/ml, read-out: Minimum Inhibitory Concentration
[26] = IFO12648, read-out: Minimum Inhibitory Concentration, 1×10^6 cells/ml
[27] = IFO12648, read-out: Minimum Inhibitory Concentration, 1×10^8 cells/ml

| SMILES | MIC (Shigella sonnei EW 33; EW33, 1×10^6 cells/ml) | MIC (Shigella sonnei EW 33; EW33, 1×10^8 cells/ml) | MIC [1, 9] | MIC [1, 10] | MIC [2, 11] | MIC [2, 12] | MIC [3, 13] | MIC [3, 14] | MIC [4, 15] | MIC [4, 16] | MIC (Proteus rettgeri NIH 96; [17]) | MIC [5, 19] | MIC [5, 20] | MIC [7, 21] | MIC [7, 22] | MIC (Proteus rettgeri NIH 96; [23]) | MIC (Klebsiella pneumoniae; [24]) | MIC (Klebsiella pneumoniae; [25]) | MIC [6, 24] | MIC [6, 25] | also measured |
| --- | --- | --- | --- | --- | --- | --- | --- | --- | --- | --- | --- | --- | --- | --- | --- | --- | --- | --- | --- | --- | --- |
| CC1CCc2c(N3CCC(N(C)C)CC3)c(F)cc3c(=O)c(C(=O)O)cn1c23 (centres unmarked) [Compound 5, 9-Fluoro-8-(4-dimethylamino-1-piperidyl)-5-methyl-6,7-dihydro-1-oxo-1H,5H-benzo[ij]quinolizine-2-carboxylic acid] | 0.2 µg/mL (≈ 0.516 µM) | 0.2 µg/mL (≈ 0.516 µM) | 3.13 µg/mL (≈ 8.08 µM) | 6.25 µg/mL (≈ 16.1 µM) | 0.2 µg/mL (≈ 0.516 µM) | 0.2 µg/mL (≈ 0.516 µM) | 0.05 µg/mL (≈ 0.129 µM) | 0.05 µg/mL (≈ 0.129 µM) | 0.78 µg/mL (≈ 2.01 µM) | 1.56 µg/mL (≈ 4.03 µM) | 0.39 µg/mL (≈ 1.01 µM) | 0.39 µg/mL (≈ 1.01 µM) | 0.78 µg/mL (≈ 2.01 µM) | 6.25 µg/mL (≈ 16.1 µM) | 6.25 µg/mL (≈ 16.1 µM) |  |  |  |  |  | MIC (Proteus rettgeri NIH 96; [18]): 0.2 µg/mL (≈ 0.516 µM); MIC (Klebsiella pneumoniae; [11]): 0.1 µg/mL (≈ 0.258 µM); MIC (Klebsiella pneumoniae; [12]): 0.2 µg/mL (≈ 0.516 µM); MIC [6, 11]: 0.2 µg/mL (≈ 0.516 µM); MIC [6, 12]: 0.2 µg/mL (≈ 0.516 µM); MIC (Pseudomonas putida 12996; Pseudomonas putida, 12996, 1×10^6 cells/ml, read-out: Minimum Inhibitory Concentration): 6.25 µg/mL (≈ 16.1 µM); MIC (Pseudomonas putida 12996; Pseudomonas putida, 12996, 1×10^8 cells/ml, read-out: Minimum Inhibitory Concentration): 6.25 µg/mL (≈ 16.1 µM) |
| CC1Cc2c(N3CCCC3)c(F)cc3c(=O)c(C(=O)O)cn1c23 (centres unmarked) [Compound 6, 9-(1-Pyrrolidinyl)-8-fluoro-2-methyl-1,2-dihydro-6-oxo-pyrrolo[3,2,1-ij]quinoline-5-carboxylic acid] | 0.024 µg/mL (≈ 0.0759 µM) | 0.05 µg/mL (≈ 0.158 µM) | 1.56 µg/mL (≈ 4.93 µM) | 1.56 µg/mL (≈ 4.93 µM) | 0.1 µg/mL (≈ 0.316 µM) | 0.1 µg/mL (≈ 0.316 µM) | 0.024 µg/mL (≈ 0.0759 µM) | 0.024 µg/mL (≈ 0.0759 µM) | 0.39 µg/mL (≈ 1.23 µM) | 0.78 µg/mL (≈ 2.47 µM) | 0.1 µg/mL (≈ 0.316 µM) | 0.78 µg/mL (≈ 2.47 µM) | 0.78 µg/mL (≈ 2.47 µM) | 1.56 µg/mL (≈ 4.93 µM) | 1.56 µg/mL (≈ 4.93 µM) | 0.05 µg/mL (≈ 0.158 µM) | 0.2 µg/mL (≈ 0.632 µM) | 0.2 µg/mL (≈ 0.632 µM) | 0.2 µg/mL (≈ 0.632 µM) | 0.39 µg/mL (≈ 1.23 µM) | Minimum Inhibitory Concentration [8]: 1.56 µg/mL; MIC [8]: 1.56 µg/mL (≈ 4.93 µM) |
| CC1Cc2c(N3CCOCC3)c(F)cc3c(=O)c(C(=O)O)cn1c23 (centres unmarked) [Compound 7, 9-Morpholino-8-fluoro-2-methyl-1,2-dihydro-6-oxo-pyrrolo[3,2,1-ij]quinoline-5-carboxylic acid] | 0.024 µg/mL (≈ 0.0722 µM) | 0.024 µg/mL (≈ 0.0722 µM) | 1.56 µg/mL (≈ 4.69 µM) | 1.56 µg/mL (≈ 4.69 µM) | 0.024 µg/mL (≈ 0.0722 µM) | 0.024 µg/mL (≈ 0.0722 µM) | 0.024 µg/mL (≈ 0.0722 µM) | 0.024 µg/mL (≈ 0.0722 µM) | 0.2 µg/mL (≈ 0.602 µM) | 0.39 µg/mL (≈ 1.17 µM) | 0.05 µg/mL (≈ 0.15 µM) | 0.78 µg/mL (≈ 2.35 µM) | 0.78 µg/mL (≈ 2.35 µM) | 1.56 µg/mL (≈ 4.69 µM) | 1.56 µg/mL (≈ 4.69 µM) | 0.05 µg/mL (≈ 0.15 µM) | 0.1 µg/mL (≈ 0.301 µM) | 0.2 µg/mL (≈ 0.602 µM) | 0.2 µg/mL (≈ 0.602 µM) | 0.2 µg/mL (≈ 0.602 µM) | Minimum Inhibitory Concentration [8]: 1.56 µg/mL; MIC [8]: 1.56 µg/mL (≈ 4.69 µM) |
| CC1Cc2c(N3CCN(C(F)(F)F)CC3)c(F)cc3c(=O)c(C(=O)O)cn1c23.Cl (centres unmarked) [Compound 8, 9-(4-Trifluoromethyl-1-piperazinyl)-8-fluoro-2-methyl-1,2-dihydro-6-oxo-pyrrolo[3,2,1-ij]quinoline-5-carboxylic acid hydrochloride] | ≤ 0.006 µg/mL | 0.012 µg/mL | 0.39 µg/mL | 0.39 µg/mL | ≤ 0.006 µg/mL | ≤ 0.006 µg/mL | 0.024 µg/mL | 0.05 µg/mL |  |  | 0.012 µg/mL | 0.39 µg/mL | 0.78 µg/mL | 0.39 µg/mL | 0.39 µg/mL | < 0.006 µg/mL | 0.012 µg/mL | 0.05 µg/mL | 0.024 µg/mL | 0.05 µg/mL | MIC [4, 26]: 0.1 µg/mL; MIC [4, 27]: 0.2 µg/mL; Minimum Inhibitory Concentration [8]: 0.39 µg/mL; MIC [8]: 0.39 µg/mL |
| CCn1cc(C(=O)O)c(=O)c2ccc(C)nc21 [Compound 9, 1-Ethyl-1,4-dihydro-7-methyl-4-oxo-1,8-naphthyridine-3-carboxylic acid, reference compound] | 3.13 µg/mL (≈ 13.5 µM) | 3.13 µg/mL (≈ 13.5 µM) |  |  | 3.13 µg/mL (≈ 13.5 µM) | 3.13 µg/mL (≈ 13.5 µM) |  |  |  |  |  |  |  |  |  |  |  |  |  |  | Minimum Inhibitory Concentration ([1]; 1×10^6 cells/ml): > 100 µg/mL; MIC ([1]; ATCC10145, read-out: Minimum Inhibitory Concentration): > 100 µg/mL; Minimum Inhibitory Concentration ([3]; 1×10^6 cells/ml): 50 µg/mL; MIC ([3]; FDA209, read-out: Minimum Inhibitory Concentration): 50 µg/mL (≈ 215 µM); MIC [4, 26]: 3.13 µg/mL (≈ 13.5 µM); MIC [4, 27]: 3.13 µg/mL (≈ 13.5 µM); MIC (Proteus rettgeri NIH 96; [18]): 1.56 µg/mL (≈ 6.72 µM); MIC (Proteus rettgeri NIH 96; NIH96, read-out: Minimum Inhibitory Concentration, 1×10^8 cells/ml): 1.56 µg/mL (≈ 6.72 µM); Minimum Inhibitory Concentration ([5]; 1×10^6 cells/ml): > 100 µg/mL; MIC ([5]; IIDS23, read-out: Minimum Inhibitory Concentration): > 100 µg/mL; MIC (Klebsiella pneumoniae; [11]): 1.56 µg/mL (≈ 6.72 µM); MIC (Klebsiella pneumoniae; [12]): 1.56 µg/mL (≈ 6.72 µM); MIC [6, 11]: 3.13 µg/mL (≈ 13.5 µM); MIC [6, 12]: 3.13 µg/mL (≈ 13.5 µM); Minimum Inhibitory Concentration (Pseudomonas putida 12996; 1×10^6 cells/ml): > 100 µg/mL; MIC (Pseudomonas putida 12996; Pseudomonas putida, 12996, read-out: Minimum Inhibitory Concentration): > 100 µg/mL; Minimum Inhibitory Concentration ([7]; 1×10^6 cells/ml): > 100 µg/mL; MIC ([7]; E2, read-out: Minimum Inhibitory Concentration): > 100 µg/mL |
